Test results: PubChem BioAssay AID200 (DTP/NCI, 2004)
“And” between values parts separate entries of the source, which are not always exact repeats. Equal entries are not always repeated. Inconclusive results and toxic doses are left out. *1 amine or outer side, *2 acyl side, *3 side chain or, on linkers, in order; H or OH if unused. Where a SMILES comes first, the peptide text is derived from it. Bridges are numbered along the chain shown (N, C = ends). Roman numbers before positions name the chains, in order. [ ]: non-standard residue; d: D form. Actinocin(9to1) = Cc1c2oc3c(C)ccc(C(=O)[*:1])c3nc-2c(C(=O)[*:2])c(N)c1=O; aThr = C[C@H](O)[C@H](N)C(=O)O; NMeV = CN[C@H](C(=O)O)C(C)C; Sar = CNCC(=O)O

System: B6C3F1 mice, B16 melanoma ip, median survival T/C
Assay: NCI In Vivo Anticancer Drug Screen. Data for tumor model B16 Melanoma (intraperitoneal) in B6C3F1 mice
Conditions: endpoint: median survival time, higher = longer survival
Experimental: The antitumor activity of compounds was measured in mice bearing transplantable tumors. Survival or tumor size were measured and the results are expressed as the measurement made in the treated group (T) divided by the measurement made in the vehicle treated control group (C). The tumor model used in this assay is B16 Melanoma (intraperitoneal) in B6C3F1 mice

[1] = dose: 2.0 mg/kg/injection, schedule: Q01DX009 (ip), vehicle: saline
[2] = dose: 4.0 mg/kg/injection, schedule: Q01DX009 (ip), vehicle: saline
[3] = dose: 8.0 mg/kg/injection, schedule: Q01DX009 (ip), vehicle: saline
[4] = dose: 100.0 mg/kg/injection, schedule: Q01DX009 (ip), vehicle: Klucel (hydroxypropylcellulose) (HPC)
[5] = dose: 200.0 mg/kg/injection, schedule: Q01DX009 (ip), vehicle: Klucel (hydroxypropylcellulose) (HPC)
[6] = dose: 12.5 mg/kg/injection, schedule: Q01DX009 (ip), vehicle: saline
[7] = dose: 6.25 mg/kg/injection, schedule: Q01DX009 (ip), vehicle: saline with Tween-80
[8] = dose: 12.5 mg/kg/injection, schedule: Q01DX009 (ip), vehicle: saline with Tween-80
[9] = dose: 50.0 mg/kg/injection, schedule: Q01DX009 (ip), vehicle: saline with Tween-80
[10] = dose: 25.0 mg/kg/injection, schedule: Q01DX009 (ip), vehicle: saline with Tween-80
[11] = dose: 100.0 mg/kg/injection, schedule: Q01DX009 (ip), vehicle: saline with Tween-80
[12] = dose: 200.0 mg/kg/injection, schedule: Q01DX009 (ip), vehicle: saline with Tween-80

COC(=O)C12OCC34C(CC5C(C)C6=CC(=O)OC6=CC5(C)C3C(O)C1O)OC(=O)C(OC(C)=O)C24 (stereo not drawn)
T/C (dose: 0.12 mg/kg/injection, schedule: Q01DX009 (ip), vehicle: saline + alcohol): 110 % of control | T/C (dose: 0.25 mg/kg/injection, schedule: Q01DX009 (ip), vehicle: saline + alcohol): 109 % of control | T/C (dose: 0.5 mg/kg/injection, schedule: Q01DX009 (ip), vehicle: saline + alcohol): 105 % of control | T/C (dose: 1.0 mg/kg/injection, schedule: Q01DX009 (ip), vehicle: saline + alcohol): 103 % of control | T/C (dose: 2.0 mg/kg/injection, schedule: Q01DX009 (ip), vehicle: saline + alcohol): 109 % of control

COc1cccc2c1C(=O)c1c(O)c3c(c(O)c1C2=O)C[C@@](O)(/C(C)=N/NC(=O)c1ccc(Cl)cc1)C[C@@H]3OC1CC(N)C(O)C(C)O1 (stereo partly drawn)
T/C (dose: 0.5 mg/kg/injection, schedule: Q01DX009 (ip), vehicle: saline): 105 % of control | T/C [1]: 183 % of control | T/C [2]: 216 % of control | T/C [3]: 151 % of control

N#CC(=C1SCS1)[N+](=O)[O-]
T/C (dose: 0.37 mg/kg/injection, schedule: Q01DX009 (ip), vehicle: saline with Tween-80): 108 % of control | T/C (dose: 0.75 mg/kg/injection, schedule: Q01DX009 (ip), vehicle: saline with Tween-80): 100 % of control | T/C (dose: 1.5 mg/kg/injection, schedule: Q01DX009 (ip), vehicle: saline with Tween-80): 105 % of control | T/C (dose: 3.0 mg/kg/injection, schedule: Q01DX009 (ip), vehicle: saline with Tween-80): 119 % of control | T/C (dose: 6.0 mg/kg/injection, schedule: Q01DX009 (ip), vehicle: saline with Tween-80): 118 % of control | T/C (dose: 12.0 mg/kg/injection, schedule: Q01DX009 (ip), vehicle: saline with Tween-80): 107 % of control | T/C (dose: 375.0 micrograms/kg/injection, schedule: Q01DX009 (ip), vehicle: saline with Tween-80): 107 % of control | T/C (dose: 750.0 micrograms/kg/injection, schedule: Q01DX009 (ip), vehicle: saline with Tween-80): 104 % of control | T/C (dose: 1500.0 micrograms/kg/injection, schedule: Q01DX009 (ip), vehicle: saline with Tween-80): 113 % of control | T/C (dose: 3000.0 micrograms/kg/injection, schedule: Q01DX009 (ip), vehicle: saline with Tween-80): 108 % of control | T/C (dose: 6000.0 micrograms/kg/injection, schedule: Q01DX009 (ip), vehicle: saline with Tween-80): 101 % of control

CC(C)(C)OC(=O)NC(CSCc1ccccc1)C(=O)ON1C(=O)CCC1=O (stereo not drawn)
T/C [4]: 94 % of control | T/C [5]: 100 % of control

C[C@]12CCC(=O)C(O)=C1CC[C@@H]1[C@@H]2CC[C@]2(C)C(=O)CC[C@@H]12
T/C (dose: 12.5 mg/kg/injection, schedule: Q01DX009 (ip), vehicle: Klucel (hydroxypropylcellulose) (HPC)): 88 % of control and 95 % of control | T/C (dose: 25.0 mg/kg/injection, schedule: Q01DX009 (ip), vehicle: Klucel (hydroxypropylcellulose) (HPC)): 97 % of control | T/C (dose: 50.0 mg/kg/injection, schedule: Q01DX009 (ip), vehicle: Klucel (hydroxypropylcellulose) (HPC)): 97 % of control and 102 % of control | T/C [4]: 92 % of control and 98 % of control | T/C [5]: 94 % of control and 95 % of control | T/C (dose: 400.0 mg/kg/injection, schedule: Q01DX009 (ip), vehicle: Klucel (hydroxypropylcellulose) (HPC)): 87 % of control and 93 % of control

CN(Cc1cnc2nc(N)nc(N)c2n1)c1c(Cl)cc(C(=O)NC(CCC(=O)O)C(=O)O)cc1Cl (stereo not drawn)
T/C [6]: 96 % of control | T/C (dose: 25.0 mg/kg/injection, schedule: Q01DX009 (ip), vehicle: saline): 91 % of control

COC(=O)Nc1nc2ccc(C3(c4ccc(F)cc4)OCCO3)cc2[nH]1
T/C [7]: 93 % of control | T/C [8]: 118 % of control | T/C [6]: 117 % of control | T/C [9]: 172 % of control

O=C(Nc1ccc([N+](=O)[O-])cc1)Nc1nncs1
T/C (dose: 25.0 mg/kg/injection, schedule: Q01DX009 (ip), vehicle: distilled water + Tween-80): 122 % of control and 103 % of control | T/C (dose: 50.0 mg/kg/injection, schedule: Q01DX009 (ip), vehicle: distilled water + Tween-80): 112 % of control and 113 % of control | T/C (dose: 200.0 mg/kg/injection, schedule: Q01DX009 (ip), vehicle: distilled water + Tween-80): 120 % of control

Oc1ccc(/C=N/N=C/c2ccc(O)c(O)c2)cc1O
T/C [10]: 100 % of control | T/C [9]: 102 % of control | T/C [11]: 99 % of control | T/C [12]: 97 % of control

C[CH2][Ge]([CH2]C)[CH2]C.C[CH2][Ge]([CH2]C)[CH2]C.C[CH2][Ge]([CH2]C)[O][Ge]([CH2]C)[CH2]C
T/C (dose: 3.13 mg/kg/injection, schedule: Q01DX009 (ip), vehicle: saline with Tween-80): 89 % of control | T/C [7]: 93 % of control | T/C [8]: 87 % of control

C1CN(P2(N3CC3)=NP(N3CC3)(N3CC3)=NP(N3CC3)(N3CC3)=N2)CCO1 (stereo not drawn)
T/C (dose: 1.0 mg/kg/injection, schedule: Q01DX009 (ip), vehicle: saline): 87 % of control and 96 % of control | T/C (dose: 1.0 mg/kg/injection, schedule: Q02DX009 (ip), vehicle: saline): 88 % of control and 106 % of control | T/C [1]: 87 % of control and 105 % of control | T/C (dose: 2.0 mg/kg/injection, schedule: Q02DX009 (ip), vehicle: saline): 114 % of control and 92 % of control | T/C [2]: 101 % of control | T/C (dose: 4.0 mg/kg/injection, schedule: Q02DX009 (ip), vehicle: saline): 103 % of control | T/C [3]: 110 % of control | T/C (dose: 8.0 mg/kg/injection, schedule: Q02DX009 (ip), vehicle: saline): 109 % of control and 121 % of control | T/C (dose: 16.0 mg/kg/injection, schedule: Q01DX009 (ip), vehicle: saline): 179 % of control | T/C (dose: 16.0 mg/kg/injection, schedule: Q02DX009 (ip), vehicle: saline): 169 % of control | T/C (dose: 32.0 mg/kg/injection, schedule: Q01DX009 (ip), vehicle: saline): 182 % of control and 205 % of control

COc1cc(C(=O)N/N=C/c2cccc([N+](=O)[O-])c2)cc(OC)c1OC
T/C [8]: 88 % of control | T/C [10]: 90 % of control

CCOC(=O)C(C)(C)Oc1ccc(Cl)cc1
T/C [8]: 93 % of control and 105 % of control | T/C [10]: 93 % of control and 102 % of control | T/C [9]: 93 % of control and 101 % of control | T/C [11]: 102 % of control and 104 % of control | T/C [12]: 90 % of control

Cc1c2oc3c(C)ccc(C(=O)N[C@@H]4C(=O)N[C@H](C(C)C)C(=O)N5CCC[C@H]5C(=O)N(C)CC(=O)N(C)[C@@H](C(C)C)C(=O)O[C@H]4C)c3nc-2c(C(=O)N[C@@H]2C(=O)N[C@H](C(C)C)C(=O)N3CCC[C@H]3C(=O)N(C)CC(=O)N(C)[C@@H](C(C)C)C(=O)O[C@H]2C)c(N)c1=O (I: [aThr][dV]P[Sar][NMeV] / II: [aThr][dV]P[Sar][NMeV]; ester I:1-I:C, II:1-II:C; linker I:N-II:N via Actinocin(9to1))
T/C (dose: 6.25 micrograms/kg/injection, schedule: Q01DX009 (ip), vehicle: saline + alcohol): 118 % of control | T/C (dose: 6.25 micrograms/kg/injection, schedule: Q01DX009 (ip), vehicle: water): 117 % of control | T/C (dose: 6.3 micrograms/kg/injection, schedule: Q01DX009 (ip), vehicle: saline + alcohol): 108 % of control and 110 % of control | T/C (dose: 12.5 micrograms/kg/injection, schedule: Q01DX009 (ip), vehicle: saline + alcohol): 115 % of control | T/C (dose: 25.0 micrograms/kg/injection, schedule: Q01DX009 (ip), vehicle: water): 151 % of control | T/C (dose: 50.0 micrograms/kg/injection, schedule: Q01DX009 (ip), vehicle: saline + alcohol): 172 % of control | T/C (dose: 50.0 micrograms/kg/injection, schedule: Q01DX009 (ip), vehicle: water): 171 % of control | T/C (dose: 100.0 micrograms/kg/injection, schedule: Q01DX009 (ip), vehicle: saline + alcohol): 160 % of control and 166 % of control | T/C (dose: 100.0 micrograms/kg/injection, schedule: Q01DX009 (ip), vehicle: water): 181 % of control | T/C (dose: 200.0 micrograms/kg/injection, schedule: Q01DX009 (ip), vehicle: saline + alcohol): 159 % of control and 174 % of control

Cc1cc(N(CC(C)Br)CC(C)Br)ccc1N=Nc1ccccc1C(=O)O (stereo not drawn)
T/C (dose: 0.78 mg/kg/injection, schedule: Q01DX009 (ip), vehicle: saline): 105 % of control | T/C (dose: 1.56 mg/kg/injection, schedule: Q01DX009 (ip), vehicle: saline with Tween-80): 110 % of control | T/C (dose: 1.56 mg/kg/injection, schedule: Q01DX009 (ip), vehicle: saline): 98 % of control | T/C (dose: 3.12 mg/kg/injection, schedule: Q01DX009 (ip), vehicle: saline with Tween-80): 164 % of control | T/C (dose: 3.12 mg/kg/injection, schedule: Q01DX009 (ip), vehicle: saline): 111 % of control | T/C (dose: 6.25 mg/kg/injection, schedule: Q01DX009 (ip), vehicle: saline): 108 % of control
